Earlier results on one compound are cited in patent US6977083B1, “Bioadhesive tablet containing testosterone/testosterone ester mixtures and method for producing a predetermined testosterone time-release profile with same” (Jenapharm GmbH & Co. KG, priority 1998, dated 2005).

The conditions of this data set: after oral or parenteral administration.

As for `C[C@]12CC[C@H]3[C@@H](CCC4=CC(=O)CC[C@@]43C)[C@@H]1CC[C@@H]2O` [testosterone], the plasma half-life result is on record as “about 10 minutes”.
